Patent US9150548B2, “Combinations of AKT inhibitor compounds and vemurafenib, and methods of use” (Genentech, Inc., priority 2011, dated 2015)

Tests used:
[1] = system: LuCap35V primary human prostate tumor model; assay: In vivo tumor xenograft efficacy, LuCap35V (FIG. 1); parameters: species or system mice
Excerpt: FIG. 1 illustrates results for the compound of Example 2 and docetaxel in LuCap35V primary prostate tumors. FIG. 2 illustrates results for the compound of Example 2 dosed intermittently either PO or IP and docetaxel in PC3-NCI prostate tumors. FIG. 3 illustrates results for the compound of Example 2 dosed PO and docetaxel in PC3-NCI prostate tumors. FIG. 4 illustrates results for the compound of Example 2 dosed IP intermittently and docetaxel in MCF7-neo/HER2 tumors. FIG. 5 illustrates results for the compound of Example 2 dosed PO and docetaxel in MCF7-neo/HER2 breast tumors. FIG. 6 illustrates results for the compound of Example 2 and docetaxel in MAXF401 mammary tumors. FIG. 7 illustrates results for the compound of Example 2 and docetaxel in SKOV3 ovarian tumors. FIG. 8 illustrates results for the compound of Example 2 and cisplatnin in SKOV3 ovarian tumors. FIG. 9 illustrates results for the compound of Example 2 dosed PO and carboplatin in IGROV-1 ovarian tumors. FIG. 10 illustrates results for the compound of Example 2 and GDC-0973 at 2.5 mg/kg in H2122 NCI-NSCL tumors. FIG. 11 illustrates results for the compound of Example 2 and GDC-0973 at 5.0 mg/kg in NCI-H2122 NSCLC tumors. FIG. 12 illustrates results for the compound of Example 2 and GDC-0973 at 7.5 mg/kg in NCI-H2122 NSCLC tumors. FIG. 13 illustrates results for the compound of Example 2 and MDV3100 in LuCap35V tumors.

[2] = active metabolite vs irinotecan itself; cited from earlier work
PTEN null line = assay: CellTiter-Glo combination assay with docetaxel (FIG. 19); type: cell-based
Excerpt: Viable cells are reflected in relative luminescence units (RLU).

[3] = system: prostate specific antigen serum levels; settings: after a month of taking the medicine; cited from earlier work

## CC(=O)O[C@@]12CO[C@@H]1C[C@H](O)[C@@]1(C)C(=O)[C@H](O)C3=C(C)[C@@H](OC(=O)[C@H](O)[C@@H](NC(=O)OC(C)(C)C)c4ccccc4)C[C@@](O)([C@@H](OC(=O)c4ccccc4)[C@H]21)C3(C)C [docetaxel, (2R,3S)—N-carboxy-3-phenylisoserine, N-tert-butyl ester, 13-ester with 5, 20-epoxy-1,2,4,7,10,13-hexahydroxytax-11-en-9-one 4-acetate 2-benzoate, trihydrate]
[1]
  tumor response (FIG. 1): tumor stasis

## CCc1c2c(nc3ccc(O)cc13)-c1cc3c(c(=O)n1C2)COC(=O)[C@]3(O)CC [SN-38, 7-ethyl-10-hydroxy-camptothecin]
[2]
  activity relative to irinotecan: 200 times

## CC(C)NC[C@@H](C(=O)N1CCN(c2ncnc3c2[C@H](C)C[C@H]3O)CC1)c1ccc(Cl)cc1 [Example 2, (S)-2-(4-chlorophenyl)-1-(4-((5R,7R)-7-hydroxy-5-methyl-6,7-dihydro-5H-cyclopenta[d]pyrimidin-4-yl)piperazin-1-yl)-3-(isopropylamino)propan-1-one]
PTEN null line
  single agent response: minimal single agent response
[1]
  tumor response (FIG. 1): tumor stasis

## CNC(=O)c1ccc(N2C(=S)N(c3ccc(C#N)c(C(F)(F)F)c3)C(=O)C2(C)C)cc1F [MDV3100, 4-(3-(4-cyano-3-(trifluoromethyl)phenyl)-5,5-dimethyl-4-oxo-2-thioxoimidazolidin-1-yl)-2-fluoro-N-methylbenzamide]
[3]
  decrease in prostate specific antigen serum levels: ≤ 89%
